From patent publication US20220008444A1, “COMPOSITIONS FOR USE IN THE PREVENTION OR TREATMENT OF NECROTIZING ENTEROCOLITIS IN INFANTS AND YOUNG CHILDREN” (SOCIÉTÉ DES PRODUITS NESTLÉ S.A., priority 2013, published 2022) come the findings set out here.

This assay concerns NFkB. Nature of the assay: NFkB reporter cell line (HT29) stimulated with TNFalpha or gram negative bacterium, in conditioned media. The conditions noted are these: HT29 NFkB reporter cells; cell culture media fermented with Bifidobacterium longum subsp infantis and the substance; stimulation with TNFalpha or S. typhymurium. It is filed as cell-based. As to the method: HT29 cells harbouring an expression plasmid with the NFkB promoter controlling an alkaline phosphatase were treated with different media and challenged with the proinflammatory TNFalpha or a gram negative bacterium such as Salmonella typhimurium. Treatments were cell culture media fermented with Bifidobacterium longum subsp infantis and (i) lactose or (ii) Lacto-N-tetraose (LNT).
The cells harbored an expression plasmid with the NF-κB promoter controlling an alkaline phosphatase so that stimulation by TNF-α or a gram negative bacterium would be indicated by fluorescence generated by interaction of the alkaline phosphatase with a fluorogenic substrate. […] This indicates LNT to exert a strong anti-inflammatory effect. Conditioned media with LNT lead to higher resistance of the cells upon proinflammatory TNFalpha or a gram negative bacterial stimulation. Intestinal epithelia cells in media conditioned by LNT (lacto-N-tetraose) and Bifidobacterium fermentation products are more resistant to proinflammatory stimulation by TNFalpha as compared to cells in a control medium conditioned by lactose and Bifidobacterium fermentation products.

Turning to `OC[C@H]1O[C@@H](O[C@H]2[C@H](O)[C@@H](O)C(O)O[C@@H]2CO)[C@H](O)[C@@H](O)[C@H]1O` (some centres unmarked) [lactose], the “activation of the inflammation marker nuclear factor kappa B (NFkB)” value is given as “very strong stimulation”.

Take `CC(=O)N[C@H]1[C@H](O[C@H]2[C@@H](O)[C@@H](CO)O[C@@H](O[C@H]3[C@H](O)[C@@H](O)C(O)O[C@@H]3CO)[C@@H]2O)O[C@H](CO)[C@@H](O)[C@@H]1O[C@@H]1O[C@H](CO)[C@H](O)[C@H](O)[C@H]1O` (some centres unmarked) [LNT, lacto-N-tetraose]: the “activation of the inflammation marker nuclear factor kappa B (NFkB)” value was “no stimulation”.
